Source: patent US6855546B1, “Controlling availability or activity of proteins by use of protease inhibitors or receptor fragments” (Universiteit Utrecht, priority 1999, dated 2005)
Where a SMILES comes first, the peptide text is derived from it. The star is where a group is joined. Cbz = O=C(OCc1ccccc1)*

Legend:
Assay type in all cases: cell-based, Chinese hamster
[1] = system: CHO-ts20 cells expressing the rabbit GHR; assay: Cy3-GH endocytosis by confocal microscopy, wild-type GHR; details: 20 mM inhibitor 3 hours at 30° C., then Cy3-GH 30 minutes
Description: FIG. 1. Effect of proteasome inhibitors on Cy3-GH and Cy3-transferrin endocytosis. CHO-ts20 cells, expressing either wild-type (A, D, G, C, F, I) or truncated GHR (B, E, H), were incubated with vehicle (A-C) or with 20 mM MG132 (D-F) or 20 mM lactacystin (G-I) for 3 hours at 30° C.; then Cy3-GH (A, B, D, E, G, H), or Cy3-transferrin (C, F, I) were added for 30 minutes, and the cells were washed, fixed and the fluorescence was visualized by confocal microscopy. If excess labeled ligand was added, no uptake was observed. If the cells in D, G were treated at pH 2.5 before fixation, virtually no label was visible (not shown).
Down-regulation of signal-transducing membrane receptors is part of highly programmed cascades of events leading both to extinction of the signaling pathway(s) and to rapid degradation of the primary messenger: the receptor and its ligand (3, 4, 5, 6, 7). In the absence of ligand, the half-life of GHR is approximately 1 to 2 hours depending on the cell system used. The assumption is that this is mainly due to a proteolytic cleavage in the extracellular domain of the GHR resulting in soluble GH-binding protein (8). If ligand is present, a completely different scenario follows: two GHR polypeptides dimerize, they are phosphorylated by the tyrosine kinase Jak2 and ubiquitinated, and the complex is endocytosed. […]

[2] = system: CHO-ts20 cells expressing GHR; assay: 125I-GH uptake (internalization) kinetic experiment; details: inhibitor 20 mM added 3 hours before; 125I-GH 8 nM bound on ice, incubated at 30° C.
Description: FIG. 2. […] CHO-ts20 cells were incubated with or without inhibitors for 3 hours at 30° C., and put on ice for 60 minutes with ^125I-GH. The cells were then incubated at 30° C. as indicated. Background label was determined in untransfected cells and subtracted. Plotted are the amounts of ^125I-GH internalized as a percentage of the cell-associated radioactivity at the start of incubation. □, control (1% ethanol); ●, MG132; ◯, lactocystin; X, lactacystin β-lactone.
To confirm and quantify the effect of the proteasome inhibitors, we measured the uptake of ^125I-GH in a kinetic experiment. Cells were pretreated with the inhibitors, ^125I-GH was bound on ice, and cells were incubated for various periods of time (FIG. 2). At the end of the incubation period, uptake was determined by washing the cells at low pH to remove the label from the cell surface. Again, GH uptake was inhibited by the proteasome inhibitors: MG132 and lactacystin b-lactone reduced the uptake to approximately 25% of the control level. […] TCA-soluble radioactivity in the culture medium, derived from lysosomal degradation of ^125I-GH, increased after 15 minutes if no inhibitor was added; virtually no TCA-soluble radioactivity appeared if the inhibitors were present (not shown).
GH binding and internalization. ^125I-hGH was prepared using chloramine T (28). For internalization studies, cells were grown in 35 mm dishes, washed with aMEM, supplemented with 20 mM HEPES, incubated for 1 hour at 30° C. in aMEM/HEPES, ^125I-GH (8 nM) was bound on ice for 60 minutes in the absence or presence of excess unlabeled GH, and the cells were washed free of unbound GH and incubated for 0 to 60 minutes. If indicated, lactacystin or its b-lactone (20 mM), MG132 (20 mM), and ZL3vinylsulfone (20 mM), dissolved in either ethanol or dimethylsulfoxide, or only vehicle, were added 3 hours before the start of the experiment. Membrane-associated GH was removed by acid wash (0.15 M NaCl, 0.05 M glycine, pH 2.5) (29) and internalized GH was determined by measuring the radioactivity after solubilization of the acid-treated cells by 1 M NaOH.

[3] = system: mature GHR in CHO-ts20 cells; assay: 35S-methionine pulse-chase of GHR in the presence of GH; details: 16 nM GH
Description: FIG. 3. Effect of MG132 on GHR degradation in the presence of ligand. A. Cells were pulse labeled with ^35S-methionine and then chased in unlabeled methionine in the presence of 16 nM GH with or without MG132 for the times indicated. GHR was immunoprecipitated using an anti-cytosolic tail antibody. The radioactivity in the mature (upper) band (inset) was quantitated and plotted. □, control (1% ethanol); ●, MG132. B. Cells were biotinylated and incubated in the presence of GH with MG132 or with vehicle only at 30° C. for the time periods indicated. After streptavidin-bead purification aliquots of the cell lysates were analyzed by SDS-PAGF; western blots were incubated with a monoclonal antibody specific for the extracellular GHR domain and detected with enhanced chemifluorescence. […]
If proteasome inhibitors affect GHR-uptake, it is expected that the inhibitors prolong the lifetime of GHRs at the cell surface. To address this, we measured the effect of MG132 in a pulse-chase experiment. […] To assess the effect of MG132 more directly, we measured degradation of cell-surface biotinylated GHR after incubation in the presence of ligand (FIG. 3B). […]
Metabolic labeling. […] The radioactivity was determined using a Molecular Dynamics phosphoimager (STORM860 equipped with ImageQuant software, Molecular Dynamics, Sunnyvale, Calif.). […]

[4] = system: cell-surface GHR in CHO-ts20 cells; assay: Degradation of cell-surface biotinylated GHR
Description: FIG. 3. Effect of MG132 on GHR degradation in the presence of ligand. A. Cells were pulse labeled with ^35S-methionine and then chased in unlabeled methionine in the presence of 16 nM GH with or without MG132 for the times indicated. GHR was immunoprecipitated using an anti-cytosolic tail antibody. The radioactivity in the mature (upper) band (inset) was quantitated and plotted. □, control (1% ethanol); ●, MG132. B. Cells were biotinylated and incubated in the presence of GH with MG132 or with vehicle only at 30° C. for the time periods indicated. After streptavidin-bead purification aliquots of the cell lysates were analyzed by SDS-PAGF; western blots were incubated with a monoclonal antibody specific for the extracellular GHR domain and detected with enhanced chemifluorescence. The sharp band below the mature GHR (130 kDa) originated from a slight background staining of precursor GHR (110 kDa), due to incomplete removal of biotinylation reagent at cell lysis.
If proteasome inhibitors affect GHR-uptake, it is expected that the inhibitors prolong the lifetime of GHRs at the cell surface. To address this, we measured the effect of MG132 in a pulse-chase experiment. […] To assess the effect of MG132 more directly, we measured degradation of cell-surface biotinylated GHR after incubation in the presence of ligand (FIG. 3B). […] However, clearance from the cell surface was reduced >50% in the presence of MG132. […] The lifetime of this species was extended in the presence of MG132. Attempts to accumulate this species or other degradation products failed until now.
Cell surface biotinylation. CHO-ts20 cells, grown in 35 mm dishes, were incubated for 60 minutes at 30° C. in aMEN/HEPES, biotinylated on ice for 30 minutes using sulfo-NHS-SS-biotin (Pierce, Rockford, Ill.), and washed free of biotinylating reagents. For GH binding, the cells were incubated for 1 hour on ice in the presence of 16 nM GH with either 20 mM MG132 or 1% ethanol. The incubation was continued at 30° C. for various time periods in the presence of GH with MG132 or ethanol only. […]

[5] = system: GHR in CHO-ts20 cells (temperature-sensitive E1); assay: GH-induced GHR degradation, quantitative western blot, CHO-ts20; details: 3 hours
Description: (§1) FIG. 4. GH-induced receptor degradation depends on an intact ubiquitin conjugation system. CHO-ts20 and CHO-E36 cells were incubated at the permissive or non-permissive temperature for 3 hours in the presence or absence of GH. Cells were lysed and aliquots were analyzed by western blotting and enhanced chemifluorescence. M, mature GHR, P, precursor GHR.
(§2) To investigate whether the ubiquitin system selects the GHR for truncation by the proteasome, we expressed the receptor in CHO-ts20 cells harboring a temperature-sensitive ubiquitin-activating enzyme, E1. The cells were incubated for 60 minutes at 42° C. (sufficient to stop generation of newly ubiquitinated proteins), followed by 3 hours at 40° C. in the presence or absence of GH, and the amounts of GHR were determined by quantitative western blot analysis (FIG. 4). At the permissive temperature, incubation in the presence of GH decreased the steady-state amounts of GHR. If the cells were kept at 40° C. in the presence of GH, the amount of GHR increased to 170%. To ascertain that this increase is solely due to a defective ubiquitin conjugation system, we used the CHO-E36 cells with an intact ubiquitin conjugation system at 40° C. As expected, in these cells the steady state of mature GHR decreased to approximately 50% of that without GH, both at 30 and 40° C. […]

[6] = system: GHR in CHO-E36 cells; assay: GH-induced GHR degradation, quantitative western blot, CHO-E36; details: CHO-E36, both at 30 and 40° C.
Description: as §1, §2

**Q.** How did the “Cy3-GH uptake (intracellular fluorescent label)” value [1] turn out when CC(C)C[C@@H](C=O)NC(=O)[C@H](CC(C)C)NC(=O)[C@H](CC(C)C)NC(=O)OCc1ccccc1 [MG132] (Cbz-Leu-Leu-Leu-aldehyde) was run?
**A.** hardly any label was present intracellularly

**Q.** What about the “125I-GH uptake relative to control” value [2] of the same molecule?
**A.** approximately 25 % of the control level

**Q.** And the “degradation rate of mature GHR” value [3]?
**A.** affects the degradation rate of mature GHR

**Q.** What about the “membrane transport from ER to the Golgi complex (maturation kinetics 110 kDa to 130 kDa)” value [3] of the same molecule?
**A.** does not affect membrane transport from ER to the Golgi complex

**Q.** What about the “lifetime of biotinylated 85-kDa intermediate degradation product” value ([4]; in the presence of GH) of the same molecule?
**A.** extended

**Q.** And the “reduction of GHR clearance from the cell surface” value ([4]; in the presence of GH (16 nM), 20 mM MG132, 30° C.)?
**A.** > 50%

**Q.** With “GH: growth hormone, ligand of the growth hormone receptor” as the molecule, how does the “disappearance of cell-surface biotinylated GHR” value ([4]; incubation in the presence of ligand, 30° C.) read?
**A.** induced a rapid disappearance of the GHR

**Q.** And the “amount of GHR in the presence of GH (percentage of mature GHR present without GH)” value ([5]; CHO-ts20, 40° C. (non-permissive))?
**A.** 170%

**Q.** And the “steady-state amount of GHR in the presence of GH” value ([5]; CHO-ts20, permissive temperature)?
**A.** decreased

**Q.** And the “steady state of mature GHR relative to that without GH” value [6]?
**A.** approximately 50%

**Q.** How did the “Cy3-GH uptake (intracellular fluorescent label)” value [1] turn out when CC(=O)N[C@@H](CSC(=O)[C@]1([C@@H](O)C(C)C)NC(=O)[C@H](C)[C@@H]1O)C(=O)O [lactacystin] was run?
**A.** hardly any label was present intracellularly

**Q.** What about the “125I-GH uptake relative to control” value [2] of the same molecule?
**A.** somewhat less effective

**Q.** With CC(C)[C@H](O)[C@@]12NC(=O)[C@H](C)[C@@H]1OC2=O [lactacystin b-lactone] as the molecule, how does the “125I-GH uptake relative to control” value [2] read?
**A.** approximately 25 % of the control level
